# Laboratory results from article PMC2908543, “Uropathogenic Escherichia coli Modulates Immune Responses and Its Curli Fimbriae Interact with the Antimicrobial Peptide LL-37” (PLoS Pathogens, 2010).
# pIC50: −log10 of the molar value. “Also recorded” adds a separate entry of the source. Like-named read-outs stand apart in the source and are kept apart here.
# Columns and labels:
# wild-type curli = experiment: Precipitation of LL-37 with wild-type curli, Western blot of supernatant; format: binding, Escherichia coli; settings: 0.1 µM LL-37 in PBS with 5 µM wild-type curli, 1 h at 37°C
# Procedure: The cellulose-deficient isogenic mutant of E. coli No. 12 was used to purify wild-type curli, as has been described. Colonies were harvested and suspended in 0.05 M Tris-buffer by using an omnimixer. Bacterial cell debris was discarded by centrifugation at 8000×g for 15 min and curli protein was precipitated by adding 0.1 M MgCl2 and 0.15 M NaCl. The aggregated curli were centrifuged at 16000×g for 15 min, and the pellet was dissolved in 10 mM TRIS, 1 mM EDTA, pH 7.5 with 2% 3-((3-cholamidopropyl)dimethylammonium)-1-propanesulfonate (CHAPS). After incubation for 45 min at 95°C, the solution was centrifuged at 20000×g for 10 min. The pellet containing curli was washed three times with water. Finally, curli were suspended in PBS and used for binding studies with LL-37.
# LL-37 (0.1 µM in PBS) was mixed with 5 µM wild-type curli, or 5 µM recombinant polymerized CsgA. As control, the same concentration of LL-37 without curli or CsgA was utilized. The samples were incubated for 1 h at 37°C with shaking and centrifuged for 30 min at 10000×g. An aliquot of the supernatants was analyzed for the presence of LL-37 with Western blot.
# Sample preparation and SDS-PAGE was carried out as described above and Western blot was performed as previously described. […]
# [1] = system: E. coli strain No. 12 and isogenic mutants; format: cell-based, Escherichia coli; settings: for pIC50: initially grown in biofilm (LB plates without salt), 10^5 CFU/ml, 0.6 µM to 20 µM peptide in 2-fold dilutions, LB broth without salt, 20 h, Alamar blue 570 nm, two experiments in triplicates, read-out: IC50 (concentration at which bacterial growth was inhibited to 50%)
# Procedure: For further investigation, E. coli isolate No. 12 from a child with pyelonephritis was chosen. This was a typical isolate expressing both curli and cellulose as well as type 1 fimbriae and yielding an approximately median level of biofilm as measured on microtiter plates. One-step knockout of bcsA and csgBA was carried out according to the protocol of Datsenko and Wanner with modifications, [50]. The following mutants were constructed using oligos listed in Table 1; WE1 bcsA::Cm, deficient in cellulose production; WE11 csgBA::Cm, deficient in curli production; and WE16 csgBA bscA::Cm, deficient in both cellulose and curli production. Expression of curli and cellulose in strain No. 12 was confirmed by these knockouts. Production of type 1 fimbriae under the culture conditions used for experiments was confirmed by yeast agglutination (see below).
# The susceptibility of wild-type and mutant E. coli strains to synthetic LL-37 and mCRAMP (Innovagen AB, Lund, Sweden) was determined using a broth microdilution method. Briefly, bacteria were grown overnight at 37°C on LB plates with or without salt, inhibiting or promoting the formation of biofilm, respectively. Then, bacteria were suspended in PBS and diluted in LB broth without salt in a concentration of 10^5 CFU/ml. The bacterial concentration was verified by viable count after serial dilutions in PBS. Bacteria (90 µl suspension) were grown in 96-well plates in the presence of 10 µl aqueous solution of synthetic LL-37 or mCRAMP in final concentrations ranging from 0.6 µM to 20 µM in 2-fold dilutions. After 20 h, bacterial viability was measured colorimetrically by reduction of Alamar blue (BioSource International, Camarillo, CA, USA) for 1 h at 37°C [57]. The IC50 was determined as the peptide concentration that gave 50% reduction of the absorbance at 570 nm relative to bacteria grown without peptide.
# monomeric CsgA [2] = biological target: T1, monomeric CsgA (Escherichia coli, UniProt P28307); experiment: Surface plasmon resonance, monomeric CsgA; settings: monomeric CsgA immobilized (2000 response units), 0.1 µM peptide, 20 µl/min for 3 min, HBS-EP, Biacore 3000; binding constants not determinable
# T1 construct: made in house; host or cells: E. coli LSR12 (C600::csg), co-expressed with CsgG
# Procedure: Binding analysis of LL-37 to both monomeric and polymeric CsgA was performed with surface plasmon resonance (Biacore 3000 instrument; Biacore AB, Uppsala, Sweden). Both monomeric and polymeric CsgA was immobilized on a CM5 sensor chip (Biacore AB) surface by amine coupling. The chip surface was normalized in 70% glycerol and lanes on the chip were activated with injection of 35 µL 0.05 M N-hydroxysuccinimide (NHS)/0.2 M N-ethyl-N′-[3-dimethylamino) propyl]carbodiimide (EDC). Polymeric or monomeric CsgA (1 µM in 10 mM sodium acetate, pH 4.5) was then immobilized on the chip to 7000 response units and 2000 response units, respectively. After immobilization, the lanes were subjected to 60 µL ethanolamine (1 M, pH 8.5) to deactivate remaining activated carboxylic groups. One lane, activated and deactivated, was used as negative control (without addition of CsgA). Standard Biacore HBS-EP (Biacore AB) was utilized as running buffer, and 0.1 µM LL-37, sLL-37 or VIP were injected at 20 µl/min for 3 min. The surface was regenerated after each cycle with 100 mM HCl.
# Pseudomonas aeruginosa = settings: ref [46]; cited from earlier work
# Description: Biofilm inhibition by antimicrobial polypeptides has previously been described for Pseudomonas aeruginosa. […] A direct interaction with biofilm components was not investigated in these studies. The effect was rather related to an influence of LL-37 on the bacterial gene expression profile or an influence of lactoferrin on free iron. These and our findings stress an important anti-biofilm role of antimicrobial polypeptides in host defense. It is likely that the anti-biofilm activit ...
# monomeric CsgA [3] = biological target: T1, monomeric CsgA; experiment: CsgA monomer stability, SDS-PAGE; format: biochemical; settings: 10 µM CsgA, 20 h at 37°C, Coomassie Blue, seen already at molar ratio 16∶1 (CsgA∶LL-37)
# Procedure: To confirm the inhibition of CsgA polymerization we sought to analyse the stability of the CsgA monomer in the absence and presence of LL-37. Freshly purified, monomeric CsgA (10 µM) was incubated for 20 h at 37°C without or with different concentrations of LL-37 and was subsequently separated by SDS-PAGE. After staining with Coomassie Blue, bands corresponding to LL-37 and/or CsgA in monomeric, dimeric or tetrameric form were visualized. When CsgA was incubated alone, monomers were not visible although sometimes dimers and/or tetramers could be observed. This finding indicates spontaneous formation of CsgA oligomers and/or larger polymers that can not migrate into the gel due to their size. […] This was already seen at a molar ratio of 16∶1 (CsgA∶LL-37). To exclude degradation of CsgA as a possible explanation for the lack of the gel band, polymerized CsgA was treated with 90% formic acid, dissolving polymeric CsgA into monomers. After this treatment, a band corresponding to monomeric CsgA was detectable in the gel (Figure 8A).
# Samples were prepared in LDS (lithium dodecyl sulphate) sample buffer (4∶1) and incubated at 70°C for 10 min. Electrophoresis was performed using 4–12% Bis-tris NU-PAGE gels (Invitrogen) at 200 V for 35 min. Gels were stained with Coomassie Blue for 1 h and destained over night in 90% water, 8% methanol and 2% acetic acid (vol/vol/vol).
# T1 sequence (P28307 21-151): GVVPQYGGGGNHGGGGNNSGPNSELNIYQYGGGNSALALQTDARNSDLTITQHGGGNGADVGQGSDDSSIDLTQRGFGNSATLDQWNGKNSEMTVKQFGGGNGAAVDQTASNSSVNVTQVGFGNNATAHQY
smiles,measurement,setting,value
CC[C@H](C)[C@H](NC(=O)[C@H](CCCCN)NC(=O)[C@H](CCC(=O)O)NC(=O)[C@H](CCCCN)NC(=O)[C@H](CO)NC(=O)[C@H](CCCCN)NC(=O)[C@H](CCCNC(=N)N)NC(=O)[C@H](Cc1ccccc1)NC(=O)[C@H](Cc1ccccc1)NC(=O)[C@H](CC(=O)O)NC(=O)CNC(=O)[C@H](CC(C)C)NC(=O)[C@@H](N)CC(C)C)C(=O)NCC(=O)N[C@@H](CCCCN)C(=O)N[C@@H](CCC(=O)O)C(=O)N[C@@H](Cc1ccccc1)C(=O)N[C@@H](CCCCN)C(=O)N[C@@H](CCCNC(=N)N)C(=O)N[C@H](C(=O)N[C@H](C(=O)N[C@@H](CCC(N)=O)C(=O)N[C@@H](CCCNC(=N)N)C(=O)N[C@H](C(=O)N[C@@H](CCCCN)C(=O)N[C@@H](CC(=O)O)C(=O)N[C@@H](Cc1ccccc1)C(=O)N[C@@H](CC(C)C)C(=O)N[C@@H](CCCNC(=N)N)C(=O)N[C@@H](CC(N)=O)C(=O)N[C@@H](CC(C)C)C(=O)N[C@H](C(=O)N1CCC[C@H]1C(=O)N[C@@H](CCCNC(=N)N)C(=O)N[C@H](C(=O)N[C@@H](CCC(=O)O)C(=O)N[C@@H](CO)C(=O)O)[C@@H](C)O)C(C)C)[C@@H](C)CC)C(C)C)[C@@H](C)CC [LL-37],LL-37 in supernatants after precipitation,wild-type curli,pronounced decrease of LL-37 in supernatants; also recorded: the levels of LL-37 decreased in the supernatants
same,difference in resistance between the strains,"[1]; bacteria pre-grown planktonically, curli expression suppressed (data not shown)",no significant difference in the resistance
same,pIC50,[1]; curliated strains,4.92
same,pIC50,[1]; non-curliated strains,5.15 to 5.22
same,binding / association and dissociation by SPR,monomeric CsgA [2],higher association with CsgA than the control peptides; also recorded: stronger association and lower dissociation rates
same,bacterial surface motility mediated by type IV pili,Pseudomonas aeruginosa,increased bacterial surface motility
same,CsgA monomer band at 15 kDa in presence of LL-37,monomeric CsgA [3],"a band migrating at 15 kDa, the predicted size of monomeric CsgA, could be observed; also recorded: the CsgA monomer is visible after SDS-PAGE"
